US12091701B2, “Screening method for candidate substances for active component to prevent or treat at least one disease selected from the group consisting of renal hypofunction, chronic kidney disease and kidney failure” (KARYDO THERAPEUTIX, INC., priority 2016, dated 2024)

Assays:
[1] = system: FGF23 in plasma; assay: Measurement of concentration of FGF23 in plasma by ELISA method in HP model mice; type: in vivo, mice (C57BL/6N); conditions: mice on diet with high phosphorus content 4 weeks; 10 mg/kg intraperitoneally weekly, five times; vs physiological saline; p=0.049
Procedure: The concentration of FGF23 in plasma was measured using an ELISA kit sold by KAINOS Laboratories, Inc. (TCY4000). A plasma sample cryopreserved in a freezer was thawed on ice, and the sample undiluted or the sample diluted 5-fold with standard solution 1 (FGF-23 concentration, 0 pg/ml) supplied with the kit was used for measurement.
50 μl of the diluted sample or a sample for a calibration curve was added to each well of an ELISA plate supplied with the kit. The plate was sealed, followed by stirring and incubating at room temperature for 2 hours. After the two hours, the sample in each well was aspirated and discarded. 300 μl of a wash solution supplied with the kit was then added to each well, and the wash solution was removed. This operation was performed four times. After the wash solution was thoroughly removed, 100 μl of an enzyme-labeled antibody solution (FGF-23 Conjugate) supplied with the kit was added to each well, and the plate was sealed, followed by stirring and incubating at room temperature for 1 hour. After the 1 hour, the sample in each well was aspirated and discarded. […] Absorbance at 450 nm was then measured with an absorbance microplate reader (Multiskan GO, Thermo Fisher Scientific Inc.). The concentration of FGF23 in plasma was calculated by making a calibration curve from the measurement result of recombinant FGF23 supplied with the kit.

[2] = system: PRP genes (Prb1, Prh1, Prp2, and Prpmp5) (the parotid glands); conditions: mice on diet with high phosphorus content 4 weeks; 10 mg/kg intraperitoneally weekly, five times; vs physiological saline; n=5 to 6
Procedure: After the wet weights of the collected organs and tissue were measured, the organs and tissue were rapidly frozen in liquid nitrogen and stored at −80° C.

[3] = system: FGF23 gene (the skull); assay: qRT-PCR of FGF23 in the skull of HP model mice given soluble human Oscar-Fc fusion protein; type: in vivo, mice (C57BL/6N); conditions: mice on diet with high phosphorus content (2% inorganic phosphorus) 4 weeks; 10 mg/kg intraperitoneally weekly, five times; vs physiological saline; normalized to Maea; p=0.026; n=5 to 6
Excerpt: (§1) Subsequently, the mixture was vortexed vigorously for 15 seconds.

[4] = system: Fgg gene (kidneys); assay: qRT-PCR of Fgg gene (fibrinogen) in the kidneys of HP model mice given soluble Oscar-Fc fusion protein; type: in vivo, mice (C57BL/6N); conditions: HP4W_sOscar vs HP4W_NS; diet with high phosphorus content 4 weeks; p=0.00071; n=5 to 6
Excerpt: as §1
To evaluate the effect of the soluble Oscar-Fc fusion protein on kidney function, the expression of a kidney function marker was confirmed in the kidneys of HP4W_NS, HP4W_sOscar, and LP4W of Reference Example 2.

soluble human Oscar-Fc fusion protein: Soluble human Oscar-Fc fusion protein of SEQ ID NO: 2 (human Oscar sequence, hinge, human IgG1); inhibits ligand binding to Oscar
increase in the concentration of FGF23 in plasma (ELISA) [1]: statistically significantly suppressed
expression of PRP genes (Prb1, Prh1, Prp2, and Prpmp5) in the parotid glands (qRT-PCR) [2]: suppressed
expression of FGF23 in the skull (qRT-PCR) [3]: suppressed
expression of the Fgg gene in the kidneys (qRT-PCR) [4]: significantly suppressed
